From patent US20110100371A1, “ANTI-VIRAL PROPERTIES OF ZOSTERIC ACID AND RELATED MOLECULES” (FLORIDA GULF COAST UNIVERSITY, priority 2007, published 2011)
Entries after “also recorded” stand apart in the source; their conditions may differ. Where two headings read alike, the source gives them in different places.

Columns and labels:
DENV-2 [1] = assay: qRT-PCR virus binding assay; type: cell-based, dengue virus; conditions: DENV-2 pre-incubated 45 m at 4° C., infection of LLCMK-2 45 m at 4° C.
Experimental: Infection of LLCMK-2 target cells in six well plates was performed in duplicate using 10^5 FFU of DENV-2 that had been pre-incubated for 45 m at 4° C. with CF 238 or pooled heterotypic anti-DENY human serum. After a 45 m infection at 4° C., infected monolayers were washed with PBS and harvested with a cell scraper, added to a 1.5 ml microfuge tube containing 350 μl of AR-200 silicone oil (Sigma-Aldrich, St. Louis, Mo.) mixed with 150 μl of silicone fluid (Thomas, Swedesboro, N.J.), and spun at 14,000 rpm in a microfuge for 1 m to separate the unbound virus from the cell-bound virus in the pellets. The tubes were then submerged in liquid nitrogen for 30 s to freeze the contents. The cell pellets with bound virus were recovered by clipping off the bottoms of the tubes with small wire clippers into 15 ml conical tubes. Viral RNA was extracted from the cell pellets using the Qiagen Viral RNA Extraction kit (Qiagen, Chatsworth, Calif.).
Quantitative real time reverse transcription PCR (qRT-PCR) was performed on the extracted RNA using the Quantitect Sybr Green RT-PCR kit (Qiagen inc., Chatsworth, Calif.), following the manufacturer's specifications and amplification protocols, using dengue-specific primers: (Den2F: […], Den2R: […]). […]

DENV-1 strain HI-1 = assay: Focus forming unit (FFU) reduction assay, DENV-1; type: cell-based; conditions: Dengue virus, DENV1, LLC-MK2; DENV-1 (D-1), LLCMK-2 target cells; read-out: IC50 μM ± sem
Experimental: (§1) DENV-1 strain HI-1, DENV-2 strain NG-2, DENV-3 strain H-78, and DENV-4 strain H-42 were obtained from R. Tesh at the World Health Organization Arbovirus Reference Laboratory at the University of Texas at Galveston. Viruses were propagated in the […] kidney epithelial cell line, LLCMK-2, a gift of K. Olsen at Colorado State University. LLCMK-2 cells were grown in Dulbecco's modified eagle medium (DMEM) with 10% (v/v) fetal bovine serum (FBS), 2 mM Glutamax, 100 U/ml penicillin G, 100 μg/ml streptomycin and 0.25 μg/ml amphotericin B, at 37° C. with 5% (v/v) CO2.
(§2) LLCMK-2 target cells were seeded at a density of 1×10^5 cells in each well of a 6-well plate 24 h prior to infection. Approximately 200 FFU of virus were incubated with or without chemistries in serum-free DMEM for 1 h at rt. […] Virus foci were detected using supernatant from mouse anti-DENV hybridoma E60 (obtained from M. Diamond at Washington University) followed by horseradish peroxidase-conjugated goat anti-mouse immunoglobulin (Pierce, Rockford, Ill.) and developed using AEC chromogen substrate (Dako, Carpinteria, Calif.). Results were expressed as the average of at least two independent trials with three replicates in each trial.

DENV-4 strain H-42 = assay: Focus forming unit (FFU) reduction assay, DENV-4; type: cell-based; conditions: Dengue virus, DENV4, LLC-MK2; DENV-4 (D-4), LLCMK-2 target cells; read-out: IC50 μM ± sem
Experimental: as §1, §2

DENV-2 strain NG-2 = assay: Focus forming unit (FFU) reduction assay, DENV-2; type: cell-based, dengue virus
Experimental: as §1
LLCMK-2 target cells were seeded at a density of 1×10^5 cells in each well of a 6-well plate 24 h prior to infection. Approximately 200 FFU of virus were incubated with or without chemistries in serum-free DMEM for 1 h at rt. Virus/chemistry or virus/control mixtures were allowed to infect confluent target cell monolayers for 1 h at 37° C., with rocking every 15 m, after which time the medium was aspirated and overlaid with fresh DMEM/10% (v/v) FBS containing 0.85% (w/v) Sea-Plaque Agarose (Cambrex Bio Science, Rockland, Me.). Cells with agar overlays were incubated at 4° C. for 20 m to set the agar. Infected cells were then incubated at 37° C. with 5% CO2 for 3 days (DENV-1, 3 and 4) or 5 days (DENV-2). Infected cultures were fixed with 10% formalin overnight at 4° C., permeabilized with 70% (v/v) ethanol for 20 m, and rinsed with PBS prior to immunostaining. Virus foci were detected using supernatant from mouse anti-DENV hybridoma E60 (obtained from M. Diamond at Washington University) followed by horseradish peroxidase-conjugated goat anti-mouse immunoglobulin (Pierce, Rockford, Ill.) and developed using AEC chromogen substrate (Dako, Carpinteria, Calif.). Results were expressed as the average of at least two independent trials with three replicates in each trial.

DENV-1,2,3 and 4 = assay: Focus forming unit (FFU) reduction assay, several dengue strains stated together; type: cell-based; conditions: Dengue virus
Experimental: as §1, §2

DENV-2 [2] = assay: Pre-binding focus-forming assay; type: cell-based, dengue virus; conditions: DENV-2, chemistry incubated with target cells 1 h at 4° C., rinsed before infection
Experimental: To determine if the observed inhibitory effect was due to interference caused by modifications to the target cell surface, CF 238 was incubated with the target cells for 1 h at 4° C., the cells were rinsed with PBS, and approximately 200 FFU of DENV-2 was allowed to infect the cells at 4° C. Agarose overlays, incubation, and immunological detection were conducted as described for the focus forming assay.

DENV-2 [3] = assay: Post-binding focus-forming assay; type: cell-based, dengue virus; conditions: DENV-2 bound at 4° C., then chemistry added 1 h at 4° C.
Experimental: To determine if the observed inhibitory effect was due to interference with interactions that occur pre-binding versus post-binding of virions to the target cells, approximately 200 FFU of DENV-2 was allowed to bind to target LLCMK-2 cells for 1 h at 4° C. to allow binding, but prevent internalization. Unbound virus was washed off with PBS at 4° C., then CF 238 was added and incubated at 4° C. for 1 h. Cultures were washed again in 4° C. PBS and warmed to 37° C. Agarose overlays, incubation, and immunological detection were conducted as described for the focus forming assay.

DENV-2 [4] = assay: Post-entry focus-forming assay; type: cell-based, dengue virus; conditions: DENV-2, chemistry added post-entry 1 hr at 37° C.
Experimental: To determine if the observed inhibitory effect was due to interference with post-entry steps in the viral life cycle, approximately 200 FFU of DENV-2 without CF 238 was allowed to bind and enter target cells for 1 h at 37° C. as described for the focus forming assay. Unbound virus was then removed by rinsing with PBS and CF 238 was added to the cells post-entry for 1 hr at 37° C. Cultures were washed again in PBS and agarose overlays, incubation, and immunological detection was conducted as described for the focus forming assay.

DENV-3 strain H-78 = assay: Focus forming unit (FFU) reduction assay, DENV-3; type: cell-based; conditions: Dengue virus, DENV3, LLC-MK2; DENV-3 (D-3), LLCMK-2 target cells; read-out: IC50 μM ± sem
Experimental: as §1, §2

[5] = Dengue virus, DENV2, LLC-MK2, read-out: IC50 μM ± sem
[6] = Dengue virus, DENV2, read-out: maximum inhibition
[7] = Dengue virus, DENV2, DENV-2, rounded statement in text, read-out: IC50 (approximate)

CCN(CCOC(=O)/C=C/c1ccc(O)cc1)Cc1cc(Cl)ccc1O [CF 238]
virus binding/attachment to target cells (qRT-PCR signal) (DENV-2 [1]): did not inhibit virus binding; also recorded: enhances virus:cell binding | IC50 (DENV-1 strain HI-1): 24 ± 6 µM | IC50 (DENV-4 strain H-42): 47 ± 5 µM | inhibition at 84 µM (DENV-2 strain NG-2; Dengue virus, DENV2, AT84): 86% | IC50 (DENV-2 strain NG-2; [5]): 46 ± 4 µM | activity relative to zosteric acid (DENV-2 strain NG-2; anti-DENV inhibitory activity compared with the natural product): ~100 times | inhibition at 84 µM (DENV-1,2,3 and 4; DENV1, AT84, all dengue strains, at 84 μM): 86 to 100% | IC50 (DENV-1,2,3 and 4; DENV1, range over DENV-1, 3 and 4, read-out: IC50 against the other three DENV types): 14 to 47 µM | inhibition when target cells treated prior to infection (DENV-2 [2]): no evidence of inhibition; also recorded: does not inhibit virus infection when pre-incubated with target cells | inhibition of virus already bound to target cells (DENV-2 [3]): No inhibition of infection was observed | inhibition when added after viral entry (DENV-2 [4]): no evidence of inhibition | IC50 (DENV-3 strain H-78): 14 ± 2 µM

CN(CCCNC(=O)c1ccc(O)cc1)CCCNC(=O)c1ccc(O)cc1 [CF 285]
IC50 (DENV-2 strain NG-2; [5]): 2520 µM | inhibition at 3000 µM (DENV-2 strain NG-2; [6]): 63% | IC50 (DENV-2 strain NG-2; [7]): ~2000 µM

CN(CCCNC(=O)c1ccc(O)cc1)CCCNC(=O)c1ccc2cc(O)ccc2c1 [CF 290]
IC50 (DENV-2 strain NG-2; [5]): 294 ± 42 µM | inhibition at 367 µM (DENV-2 strain NG-2; [6]): 60%

O=C(c1ccc(O)cc1)N1CCCN(C(=O)c2ccc3cc(O)ccc3c2)CC1 [CF 296]
dose-dependent inhibition against DENV-2 (DENV-2 strain NG-2; DENV-2, result in words): did not show evidence of clear dose-dependent inhibition

CCN(CCCN(CC)C(=O)c1cccc(O)c1)C(=O)c1cccc(O)c1 [CF 490]
IC50 (DENV-2 strain NG-2; [5]): 2380 µM | inhibition at 3000 µM (DENV-2 strain NG-2; [6]): 84% | IC50 (DENV-2 strain NG-2; [7]): ~2000 µM

O=C(O)/C=C/c1ccc(OS(=O)(=O)O)cc1 [ZA, p-sulfoxy-cinnamic acid]
inhibition at 5000 µM (DENV-2 strain NG-2; Dengue virus, DENV2): 99% | IC50 (DENV-2 strain NG-2; [5]): 2380 µM | IC50 (DENV-2 strain NG-2; [7]): ~2000 µM
